Results taken from ChEMBL document CHEMBL1828590 (J Med Chem, 2011).

Key:
A2780 = test: Antiproliferative activity against human A2780 cells after 96 hrs by celltiter 96 assay; type: functional, cell-based; settings: A2780, 96 h
Histone deacetylase 1 = Histone deacetylase 1 (Homo sapiens, UniProt Q13547)
Description: Competitive inhibition of HDAC1 using KI-104 as substrate by fluorescence assay

CYP1A = target: T1, CYP1A (Homo sapiens, UniProt P04798+P05177); test: Inhibition of CYP1A in human liver microsomes by fluorescence assay; type: ADME, Microsome
T1 sequence (P04798 whole entry): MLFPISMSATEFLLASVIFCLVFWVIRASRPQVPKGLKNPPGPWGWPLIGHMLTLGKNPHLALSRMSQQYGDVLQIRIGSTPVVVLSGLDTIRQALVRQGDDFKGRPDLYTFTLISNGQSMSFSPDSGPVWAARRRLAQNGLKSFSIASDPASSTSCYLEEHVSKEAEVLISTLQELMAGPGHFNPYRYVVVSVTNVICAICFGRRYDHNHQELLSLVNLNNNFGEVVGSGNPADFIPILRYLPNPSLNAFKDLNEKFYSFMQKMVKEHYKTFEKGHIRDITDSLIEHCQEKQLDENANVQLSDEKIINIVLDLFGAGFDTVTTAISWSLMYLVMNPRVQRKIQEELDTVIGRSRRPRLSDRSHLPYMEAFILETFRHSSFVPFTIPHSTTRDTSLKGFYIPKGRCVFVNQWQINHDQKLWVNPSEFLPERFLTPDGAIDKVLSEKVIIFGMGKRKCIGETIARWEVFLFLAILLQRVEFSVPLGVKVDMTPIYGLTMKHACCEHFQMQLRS
T1 sequence (P05177 whole entry): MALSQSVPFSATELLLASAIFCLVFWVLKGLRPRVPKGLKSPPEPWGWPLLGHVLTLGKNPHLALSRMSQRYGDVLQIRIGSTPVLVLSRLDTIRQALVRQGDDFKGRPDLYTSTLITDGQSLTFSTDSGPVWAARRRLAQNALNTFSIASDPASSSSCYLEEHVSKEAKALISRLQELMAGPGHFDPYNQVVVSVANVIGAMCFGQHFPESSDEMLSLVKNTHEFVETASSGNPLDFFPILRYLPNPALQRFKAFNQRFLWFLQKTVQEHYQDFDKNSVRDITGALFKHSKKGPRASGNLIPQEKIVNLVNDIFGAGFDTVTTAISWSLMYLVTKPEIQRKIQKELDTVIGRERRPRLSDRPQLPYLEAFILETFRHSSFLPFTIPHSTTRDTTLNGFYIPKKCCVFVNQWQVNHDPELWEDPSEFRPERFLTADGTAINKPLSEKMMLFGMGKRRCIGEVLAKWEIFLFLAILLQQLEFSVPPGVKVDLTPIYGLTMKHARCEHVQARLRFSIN

Histone deacetylase 5 = Histone deacetylase 5 (Homo sapiens, UniProt Q9UQL6)
Description: Competitive inhibition of HDAC5 using KI-104 as substrate by fluorescence assay

[1] = target: T2, Polyamine deacetylase HDAC10 (Homo sapiens, UniProt Q969S8)
T2 sequence (Q969S8 whole entry): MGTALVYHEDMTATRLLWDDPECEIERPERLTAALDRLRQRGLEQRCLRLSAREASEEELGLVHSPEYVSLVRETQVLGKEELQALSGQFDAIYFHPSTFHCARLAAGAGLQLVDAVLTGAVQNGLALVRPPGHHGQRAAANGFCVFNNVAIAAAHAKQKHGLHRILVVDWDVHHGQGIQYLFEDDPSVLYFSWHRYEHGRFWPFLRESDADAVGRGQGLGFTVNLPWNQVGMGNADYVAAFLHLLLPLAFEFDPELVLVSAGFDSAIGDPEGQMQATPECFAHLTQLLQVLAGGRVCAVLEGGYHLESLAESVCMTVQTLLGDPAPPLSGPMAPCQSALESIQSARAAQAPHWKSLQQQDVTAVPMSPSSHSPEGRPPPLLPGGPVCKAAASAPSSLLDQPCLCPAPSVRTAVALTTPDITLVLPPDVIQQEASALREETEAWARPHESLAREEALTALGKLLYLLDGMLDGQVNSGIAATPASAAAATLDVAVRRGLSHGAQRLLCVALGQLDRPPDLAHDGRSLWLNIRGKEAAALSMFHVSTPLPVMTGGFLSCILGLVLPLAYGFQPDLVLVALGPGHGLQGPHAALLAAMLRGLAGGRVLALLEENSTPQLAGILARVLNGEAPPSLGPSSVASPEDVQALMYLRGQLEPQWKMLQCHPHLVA
Description: Competitive inhibition of HDAC10 using KI-104 as substrate by fluorescence assay

Histone deacetylase 11 = target: T3, Histone deacetylase 11 (Homo sapiens, UniProt Q96DB2)
T3 sequence (Q96DB2 whole entry): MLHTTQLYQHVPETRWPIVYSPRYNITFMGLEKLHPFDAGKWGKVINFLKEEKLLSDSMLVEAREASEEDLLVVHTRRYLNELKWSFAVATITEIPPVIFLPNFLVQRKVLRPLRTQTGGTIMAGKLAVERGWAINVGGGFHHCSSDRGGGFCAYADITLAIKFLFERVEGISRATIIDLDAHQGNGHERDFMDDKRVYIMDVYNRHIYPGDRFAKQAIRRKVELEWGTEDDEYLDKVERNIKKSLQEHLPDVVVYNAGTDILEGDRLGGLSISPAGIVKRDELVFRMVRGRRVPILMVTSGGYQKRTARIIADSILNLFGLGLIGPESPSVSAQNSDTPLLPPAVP
Description: Competitive inhibition of HDAC11 using KI-104 as substrate by fluorescence assay

Cytochrome P450 2D6 [2] = target: T4, Cytochrome P450 2D6 (Homo sapiens, UniProt P10635); test: Inhibition of recombinant CYP2D6 after 30 mins by fluorescence assay; type: ADME
Cytochrome P450 2D6 [3] = target: T4, Cytochrome P450 2D6; test: Inhibition of CYP2D6 in human liver microsomes by fluorescence assay; type: ADME, Microsome
Histone deacetylase 2 = Histone deacetylase 2 (Homo sapiens, UniProt Q92769)
Description: Competitive inhibition of HDAC2 using KI-104 as substrate by fluorescence assay

Cytochrome P450 2C19 = Cytochrome P450 2C19 (Homo sapiens, UniProt P33261); test: Inhibition of CYP2C19 in human liver microsomes by fluorescence assay; type: ADME, Microsome
COLO 205 = test: Antiproliferative activity against human COLO205 cells after 96 hrs by celltiter 96 assay; type: functional, cell-based; settings: COLO 205, 96 h
Cytochrome P450 2C9 = Cytochrome P450 2C9 (Homo sapiens, UniProt P11712); test: Inhibition of CYP2C9 in human liver microsomes by fluorescence assay; type: ADME, Microsome
Chain of Cytochrome P450 2C9 (P11712 whole entry): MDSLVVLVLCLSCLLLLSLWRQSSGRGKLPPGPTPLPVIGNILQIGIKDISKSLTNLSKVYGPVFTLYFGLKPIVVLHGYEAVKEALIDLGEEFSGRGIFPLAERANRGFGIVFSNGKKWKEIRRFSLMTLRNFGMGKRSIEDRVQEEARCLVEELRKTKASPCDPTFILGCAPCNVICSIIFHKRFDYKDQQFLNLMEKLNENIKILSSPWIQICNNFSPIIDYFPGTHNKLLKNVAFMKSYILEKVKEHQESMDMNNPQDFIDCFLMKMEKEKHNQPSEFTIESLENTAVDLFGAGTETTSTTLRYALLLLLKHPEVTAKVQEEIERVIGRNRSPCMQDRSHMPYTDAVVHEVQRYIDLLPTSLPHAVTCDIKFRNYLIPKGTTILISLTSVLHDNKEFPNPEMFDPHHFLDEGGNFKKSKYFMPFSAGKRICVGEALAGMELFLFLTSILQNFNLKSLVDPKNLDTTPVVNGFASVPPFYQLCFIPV

Chain of Histone deacetylase 5 (Q9UQL6 whole entry): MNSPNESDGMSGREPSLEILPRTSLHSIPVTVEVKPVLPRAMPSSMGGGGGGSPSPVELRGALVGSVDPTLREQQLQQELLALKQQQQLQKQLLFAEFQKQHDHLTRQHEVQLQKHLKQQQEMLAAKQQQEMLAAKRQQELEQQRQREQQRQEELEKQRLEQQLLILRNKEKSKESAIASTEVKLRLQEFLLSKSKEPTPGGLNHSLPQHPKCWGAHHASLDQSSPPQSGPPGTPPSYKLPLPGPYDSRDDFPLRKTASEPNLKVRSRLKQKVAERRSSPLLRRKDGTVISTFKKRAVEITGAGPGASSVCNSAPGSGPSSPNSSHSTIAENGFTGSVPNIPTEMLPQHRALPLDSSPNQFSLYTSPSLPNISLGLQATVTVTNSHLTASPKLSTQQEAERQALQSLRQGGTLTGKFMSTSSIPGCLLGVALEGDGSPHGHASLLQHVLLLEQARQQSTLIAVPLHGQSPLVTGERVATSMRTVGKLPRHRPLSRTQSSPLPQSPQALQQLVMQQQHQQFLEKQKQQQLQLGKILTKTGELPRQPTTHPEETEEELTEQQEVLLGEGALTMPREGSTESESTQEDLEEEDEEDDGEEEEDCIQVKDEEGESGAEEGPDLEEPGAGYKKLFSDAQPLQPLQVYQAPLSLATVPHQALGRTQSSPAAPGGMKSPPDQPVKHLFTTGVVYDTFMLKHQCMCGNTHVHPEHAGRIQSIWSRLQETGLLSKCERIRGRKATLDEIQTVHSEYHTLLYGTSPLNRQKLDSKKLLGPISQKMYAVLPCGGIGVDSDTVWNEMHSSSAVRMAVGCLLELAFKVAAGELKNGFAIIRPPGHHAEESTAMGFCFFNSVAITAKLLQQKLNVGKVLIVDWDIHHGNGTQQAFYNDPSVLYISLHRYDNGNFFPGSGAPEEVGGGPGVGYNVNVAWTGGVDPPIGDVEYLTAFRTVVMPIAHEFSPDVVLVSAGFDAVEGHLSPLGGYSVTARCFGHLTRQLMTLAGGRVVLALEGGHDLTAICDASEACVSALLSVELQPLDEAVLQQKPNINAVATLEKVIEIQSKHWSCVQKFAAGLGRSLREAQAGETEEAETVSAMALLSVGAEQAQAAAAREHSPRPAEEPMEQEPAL
T4 sequence (P10635 whole entry): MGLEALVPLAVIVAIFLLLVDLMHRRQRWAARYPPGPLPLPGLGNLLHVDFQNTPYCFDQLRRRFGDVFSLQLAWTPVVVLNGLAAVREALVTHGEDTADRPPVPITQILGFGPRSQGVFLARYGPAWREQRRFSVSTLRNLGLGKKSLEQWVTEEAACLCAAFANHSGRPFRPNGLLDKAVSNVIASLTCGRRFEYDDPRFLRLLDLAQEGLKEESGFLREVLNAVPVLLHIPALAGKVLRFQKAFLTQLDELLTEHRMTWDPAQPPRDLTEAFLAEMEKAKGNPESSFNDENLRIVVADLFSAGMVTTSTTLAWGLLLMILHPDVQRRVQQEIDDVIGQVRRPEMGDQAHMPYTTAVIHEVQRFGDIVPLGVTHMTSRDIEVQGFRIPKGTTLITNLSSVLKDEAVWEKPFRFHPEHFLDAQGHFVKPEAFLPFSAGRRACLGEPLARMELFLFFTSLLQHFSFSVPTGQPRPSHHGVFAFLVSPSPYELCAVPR
Chain of Cytochrome P450 2C19 (P33261 whole entry): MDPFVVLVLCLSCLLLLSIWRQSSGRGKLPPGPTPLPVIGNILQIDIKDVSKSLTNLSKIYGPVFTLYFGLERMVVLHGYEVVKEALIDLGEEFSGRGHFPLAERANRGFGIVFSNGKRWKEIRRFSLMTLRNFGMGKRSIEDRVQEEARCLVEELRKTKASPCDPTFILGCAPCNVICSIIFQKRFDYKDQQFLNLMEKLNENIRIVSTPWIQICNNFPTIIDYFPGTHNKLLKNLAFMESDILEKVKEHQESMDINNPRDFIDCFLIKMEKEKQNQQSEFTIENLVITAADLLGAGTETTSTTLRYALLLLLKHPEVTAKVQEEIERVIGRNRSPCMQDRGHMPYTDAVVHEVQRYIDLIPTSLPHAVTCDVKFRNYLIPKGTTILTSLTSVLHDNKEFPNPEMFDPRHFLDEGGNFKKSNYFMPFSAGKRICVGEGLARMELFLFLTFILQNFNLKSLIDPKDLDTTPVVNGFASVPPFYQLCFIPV
Chain of Histone deacetylase 2 (Q92769 whole entry): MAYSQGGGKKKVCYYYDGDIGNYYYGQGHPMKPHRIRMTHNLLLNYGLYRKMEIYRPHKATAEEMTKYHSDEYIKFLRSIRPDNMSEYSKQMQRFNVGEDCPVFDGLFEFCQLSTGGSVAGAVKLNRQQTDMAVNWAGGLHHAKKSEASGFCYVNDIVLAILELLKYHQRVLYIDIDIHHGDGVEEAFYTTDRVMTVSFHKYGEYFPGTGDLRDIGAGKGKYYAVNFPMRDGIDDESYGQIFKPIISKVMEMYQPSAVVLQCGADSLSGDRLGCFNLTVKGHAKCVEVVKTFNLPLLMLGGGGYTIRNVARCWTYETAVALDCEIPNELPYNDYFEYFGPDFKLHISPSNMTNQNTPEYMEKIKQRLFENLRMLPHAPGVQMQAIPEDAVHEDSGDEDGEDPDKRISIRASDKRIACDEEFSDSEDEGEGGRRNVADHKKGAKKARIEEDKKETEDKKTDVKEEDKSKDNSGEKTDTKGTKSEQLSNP
Chain of Histone deacetylase 1 (Q13547 whole entry): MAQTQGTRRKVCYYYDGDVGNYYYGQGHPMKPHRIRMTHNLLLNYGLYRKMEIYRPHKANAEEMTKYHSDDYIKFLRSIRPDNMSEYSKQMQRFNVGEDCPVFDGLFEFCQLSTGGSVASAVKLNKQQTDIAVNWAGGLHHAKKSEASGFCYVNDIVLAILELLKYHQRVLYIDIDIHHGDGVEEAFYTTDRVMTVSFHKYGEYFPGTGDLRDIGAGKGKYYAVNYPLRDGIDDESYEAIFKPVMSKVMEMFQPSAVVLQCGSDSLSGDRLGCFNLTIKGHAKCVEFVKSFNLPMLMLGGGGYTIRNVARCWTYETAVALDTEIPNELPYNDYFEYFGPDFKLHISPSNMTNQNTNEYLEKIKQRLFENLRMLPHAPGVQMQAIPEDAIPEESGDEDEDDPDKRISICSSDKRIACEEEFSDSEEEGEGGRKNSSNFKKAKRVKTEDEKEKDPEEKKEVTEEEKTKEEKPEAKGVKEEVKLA

Row | Structure (SMILES) | IC50 (A2780) [nM] | Ki (Histone deacetylase 1) [nM] | IC50 (CYP1A) [nM] | Ki (Histone deacetylase 5) [nM] | Ki [1] [nM] | Ki (Histone deacetylase 11) [nM] | IC50 (Cytochrome P450 2D6 [2]) [nM] | IC50 (Cytochrome P450 2D6 [3]) [nM] | Ki (Histone deacetylase 2) [nM] | IC50 (Cytochrome P450 2C19) [nM] | IC50 (COLO 205) [nM] | IC50 (Cytochrome P450 2C9) [nM]
1 | CCCCCCc1nc2cc(/C=C/C(=O)NO)ccc2n1CCN(C)C | 230 | 19 | > 25000 | 9.2 | 13 | 11 | 3170 | > 25000 | 21 | 10300 | 330 | 10400
2 | CN(C)CC(C)(C)Cn1c(CC(C)(C)C)nc2cc(/C=C/C(=O)NO)ccc21 | 440 | 24 | > 25000 | 11 | 34 | 14 | > 10000 | 13900 | 26 | 8100 | 570 | > 25000
3 | CCCCc1nc2cc(/C=C/C(=O)NO)ccc2n1CCN(CC)CC.Cl.Cl | 480 | […] | > 25000 | 21 | 23 | 24 | > 10000 | > 25000 | 27 | 5780 | 560 | > 25000
